We go through one compound from PMC4308110 (PLoS ONE, 2015).

The target in the test is T1, SthK-Cterm (Winmispira thermophila, UniProt E0RR11).
T1 construct: gene STHERM_c06300; C-linker/CNBD, residues 226-430 of full length; synthetic gene, His6-MBP fusion cut with thrombin; E. coli BL21(DE3); tetramer (SEC-MALLS); model residues 226-423
In words: X-ray crystal structure. As to conditions: antagonist; 5 mM cGMP added; bistrispropane pH 7.5, 20 °C; 2.55 Å; cyclic nucleotide-binding site.

Structures are written as SMILES.

T1 sequence (E0RR11 entry or part of it): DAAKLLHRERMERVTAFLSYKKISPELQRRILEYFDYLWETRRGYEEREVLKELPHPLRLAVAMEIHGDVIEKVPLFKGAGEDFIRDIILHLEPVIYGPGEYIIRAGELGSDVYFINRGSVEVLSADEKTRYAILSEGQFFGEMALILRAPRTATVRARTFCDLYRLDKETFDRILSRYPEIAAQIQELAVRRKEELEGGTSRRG

For `Nc1nc2c(ncn2[C@@H]2O[C@@H]3COP(=O)(O)O[C@H]3[C@H]2O)c(=O)[nH]1` [cGMP], the X-ray crystal structure entry was “we observe that cGMP is able to bind in the cyclic nucleotide binding cavity from SthK”.
